Laboratory results: ChEMBL document CHEMBL4177748, “Synthesis, structure-activity relationships, and mechanistic studies of 5-arylazo-tropolone derivatives as novel xanthine oxidase (XO) inhibitors” (Bioorg Med Chem, 2018)

Target: Xanthine dehydrogenase/oxidase (Bos taurus, UniProt P80457)
Assay: Inhibition of bovine milk xanthine oxidase using xanthine as substrate pretreated for 15 mins followed by substrate addition measured after 8 mins
Details: not given; call rule not given here

Sequence of Xanthine dehydrogenase/oxidase (P80457 whole entry): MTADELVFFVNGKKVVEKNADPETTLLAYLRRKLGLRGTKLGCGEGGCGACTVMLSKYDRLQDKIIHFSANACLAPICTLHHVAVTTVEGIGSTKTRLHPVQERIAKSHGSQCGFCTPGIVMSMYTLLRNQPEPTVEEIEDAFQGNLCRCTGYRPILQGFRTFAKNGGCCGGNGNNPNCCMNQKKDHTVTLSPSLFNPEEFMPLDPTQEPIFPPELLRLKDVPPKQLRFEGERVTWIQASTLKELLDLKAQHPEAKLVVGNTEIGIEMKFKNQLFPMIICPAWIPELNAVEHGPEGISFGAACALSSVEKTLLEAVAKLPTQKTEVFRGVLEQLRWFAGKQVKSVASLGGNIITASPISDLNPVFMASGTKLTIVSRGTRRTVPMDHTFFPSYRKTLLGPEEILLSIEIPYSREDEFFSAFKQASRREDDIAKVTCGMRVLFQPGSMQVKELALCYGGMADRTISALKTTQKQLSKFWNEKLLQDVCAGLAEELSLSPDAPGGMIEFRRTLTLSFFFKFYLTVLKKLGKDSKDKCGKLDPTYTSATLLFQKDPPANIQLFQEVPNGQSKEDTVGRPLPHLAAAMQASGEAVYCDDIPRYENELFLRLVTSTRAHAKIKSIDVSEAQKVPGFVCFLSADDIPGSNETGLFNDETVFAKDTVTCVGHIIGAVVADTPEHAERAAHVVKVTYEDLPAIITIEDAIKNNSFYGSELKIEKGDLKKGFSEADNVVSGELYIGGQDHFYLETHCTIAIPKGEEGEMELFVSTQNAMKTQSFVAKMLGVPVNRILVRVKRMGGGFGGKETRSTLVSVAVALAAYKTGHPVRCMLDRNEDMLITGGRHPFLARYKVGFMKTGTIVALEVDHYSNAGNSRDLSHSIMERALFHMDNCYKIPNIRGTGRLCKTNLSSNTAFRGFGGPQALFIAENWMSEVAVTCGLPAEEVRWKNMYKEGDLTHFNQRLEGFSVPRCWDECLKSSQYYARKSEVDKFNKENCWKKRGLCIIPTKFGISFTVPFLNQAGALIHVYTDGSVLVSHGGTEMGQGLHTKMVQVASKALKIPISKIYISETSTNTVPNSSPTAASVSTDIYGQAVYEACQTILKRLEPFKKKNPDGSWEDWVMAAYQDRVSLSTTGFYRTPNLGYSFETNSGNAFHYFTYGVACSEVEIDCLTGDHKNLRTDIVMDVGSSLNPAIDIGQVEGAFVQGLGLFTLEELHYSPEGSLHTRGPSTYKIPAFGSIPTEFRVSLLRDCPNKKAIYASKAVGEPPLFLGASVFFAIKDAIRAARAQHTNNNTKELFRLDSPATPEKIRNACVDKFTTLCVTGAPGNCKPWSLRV

| IC50 | Structure (SMILES) |
| --- | --- |
| Not Active | Cc1cccc(/N=N/c2ccc(O)c(=O)cc2)c1 |
| Not Active | O=c1ccc(/N=N/c2cccc(Br)c2)ccc1O |
| Not Active | O=c1ccc(/N=N/c2ccc(F)cc2)ccc1O |
| Not Active | Cc1ccc(Br)cc1/N=N/c1ccc(O)c(=O)cc1 |
| Not Active | COc1ccc(/N=N/c2cc(C(F)(F)F)cc(C(F)(F)F)c2)ccc1=O |
| Not Active | Cc1cc(C)cc(/N=N/c2ccc(O)c(=O)cc2)c1 |
| Not Active | O=c1ccc(/N=N/c2cccc(I)c2)ccc1O |
| Not Active | CCOC(=O)c1ccc(/N=N/c2ccc(O)c(=O)cc2)cc1 |

Same assay, conditions: read-out: IC50

| IC50 | Structure (SMILES) |
| --- | --- |
| 8.9 µM | O=c1ccc(/N=N/c2cccc(F)c2)ccc1O |
| 80 µM | COC(=O)c1cccc(/N=N/c2ccc(O)c(=O)cc2)c1 |
| 17 µM | O=c1ccc(/N=N/c2cccc(Cl)c2)ccc1O |
| 57 µM | COc1cc(/N=N/c2ccc(O)c(=O)cc2)cc(OC)c1OC |
| 7.4 µM | O=c1ccc(/N=N/c2cccc(C(F)(F)F)c2)ccc1O |
| 45 µM | COc1cccc(/N=N/c2ccc(O)c(=O)cc2)c1 |
| 23 µM | Cc1c(/N=N/c2ccc(O)c(=O)cc2)cccc1[N+](=O)[O-] |
